Assay results from US6643591B1, “Use of computational and experimental data to model organic compound reactivity in cytochrome P450 mediated reactions and to optimize the design of pharmaceuticals” (University of Pittsburgh, priority 1998, dated 2003).
Marks after values point to notes of the source that are not given here.

How the values were obtained:
CYP2C9 = CYP2C9 (Homo sapiens, UniProt P11712); test: Regioselectivity and inter-/intramolecular KIE for 4-methylanisole (Table 15); type: in vitro ADME
CYP2B6 = target: T1, CYP2B6 (Homo sapiens, UniProt P20813); settings: human, pH 7.4
T1 sequence (P20813 1-491): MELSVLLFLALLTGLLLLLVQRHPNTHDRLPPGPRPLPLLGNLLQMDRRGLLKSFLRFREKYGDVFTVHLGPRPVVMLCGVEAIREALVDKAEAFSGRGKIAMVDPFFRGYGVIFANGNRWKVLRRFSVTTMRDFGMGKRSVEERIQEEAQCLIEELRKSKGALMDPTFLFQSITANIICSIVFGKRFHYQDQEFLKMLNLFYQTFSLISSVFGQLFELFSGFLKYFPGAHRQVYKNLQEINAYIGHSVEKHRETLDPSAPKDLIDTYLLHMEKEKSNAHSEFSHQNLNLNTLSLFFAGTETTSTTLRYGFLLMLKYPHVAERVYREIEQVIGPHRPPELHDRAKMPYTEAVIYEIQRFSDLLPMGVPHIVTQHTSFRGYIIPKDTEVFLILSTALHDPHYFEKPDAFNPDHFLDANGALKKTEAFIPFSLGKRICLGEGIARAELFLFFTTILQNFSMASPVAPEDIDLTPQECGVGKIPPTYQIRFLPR

CYP2C8 = target: T2, CYP2C8 (Homo sapiens, UniProt P10632); test: Regioselectivity and inter-/intramolecular KIE for 4-methylanisole (Table 15); type: in vitro ADME
T2 sequence (P10632 1-490): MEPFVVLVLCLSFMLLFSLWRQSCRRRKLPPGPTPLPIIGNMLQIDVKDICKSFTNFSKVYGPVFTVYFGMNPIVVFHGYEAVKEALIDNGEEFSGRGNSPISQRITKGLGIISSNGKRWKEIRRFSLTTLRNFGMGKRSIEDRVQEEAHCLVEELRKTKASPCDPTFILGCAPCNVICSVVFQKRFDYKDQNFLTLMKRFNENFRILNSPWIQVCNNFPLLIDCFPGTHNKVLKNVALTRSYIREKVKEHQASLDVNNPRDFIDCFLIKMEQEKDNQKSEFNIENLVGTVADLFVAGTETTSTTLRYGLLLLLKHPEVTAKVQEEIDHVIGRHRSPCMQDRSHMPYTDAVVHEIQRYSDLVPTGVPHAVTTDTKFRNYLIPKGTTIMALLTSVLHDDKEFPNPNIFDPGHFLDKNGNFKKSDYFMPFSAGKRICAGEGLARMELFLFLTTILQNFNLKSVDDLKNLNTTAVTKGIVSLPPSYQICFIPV

CYP3A4 = CYP3A4 (Homo sapiens, UniProt P08684); test: as above; type: in vitro ADME
CYP2E1 = CYP2E1 (Homo sapiens, UniProt P05181); test: as above; type: in vitro ADME
CYP1A2 [1] = target: T3, CYP1A2 (Homo sapiens, UniProt P05177); test: as above; type: in vitro ADME
T3 sequence (P05177 1-516): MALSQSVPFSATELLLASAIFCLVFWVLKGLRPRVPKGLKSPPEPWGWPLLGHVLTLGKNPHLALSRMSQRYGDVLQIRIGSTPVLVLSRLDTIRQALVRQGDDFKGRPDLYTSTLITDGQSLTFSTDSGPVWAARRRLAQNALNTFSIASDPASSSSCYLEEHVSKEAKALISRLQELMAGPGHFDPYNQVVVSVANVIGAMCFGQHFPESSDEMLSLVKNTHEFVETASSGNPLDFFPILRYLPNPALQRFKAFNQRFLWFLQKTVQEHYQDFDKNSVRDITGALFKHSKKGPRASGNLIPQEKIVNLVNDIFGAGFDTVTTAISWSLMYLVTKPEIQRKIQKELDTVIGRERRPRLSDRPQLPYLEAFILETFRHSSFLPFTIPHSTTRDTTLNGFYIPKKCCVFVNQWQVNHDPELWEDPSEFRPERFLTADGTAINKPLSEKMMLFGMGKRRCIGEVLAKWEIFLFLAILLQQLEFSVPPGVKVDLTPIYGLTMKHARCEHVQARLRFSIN

CYP1A1 = target: T4, CYP1A1 (Homo sapiens, UniProt P04798)
T4 sequence (P04798 1-512): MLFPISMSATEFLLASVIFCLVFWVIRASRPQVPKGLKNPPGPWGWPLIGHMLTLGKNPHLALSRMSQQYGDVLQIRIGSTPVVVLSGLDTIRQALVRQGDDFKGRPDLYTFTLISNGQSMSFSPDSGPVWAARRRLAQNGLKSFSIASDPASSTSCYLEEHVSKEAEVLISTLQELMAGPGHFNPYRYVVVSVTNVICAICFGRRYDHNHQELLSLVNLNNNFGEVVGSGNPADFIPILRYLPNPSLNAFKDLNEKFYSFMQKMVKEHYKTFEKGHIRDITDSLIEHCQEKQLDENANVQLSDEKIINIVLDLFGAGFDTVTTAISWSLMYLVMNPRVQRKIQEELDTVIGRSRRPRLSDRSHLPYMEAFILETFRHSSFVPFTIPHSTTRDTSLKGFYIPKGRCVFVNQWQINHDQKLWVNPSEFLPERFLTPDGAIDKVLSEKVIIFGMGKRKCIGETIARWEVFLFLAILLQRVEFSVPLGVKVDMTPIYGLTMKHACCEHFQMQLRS

CYP1A2, CYP2B1, CYP2E1 = test: in vitro; settings: pH 7.4, Regioselectivity BzH:Arom, range, isoforms 1A2, 2B1 and 2E1
multiple CYP isoforms = test: in vitro; settings: pH 7.4, Regioselectivity BzH:ODAlk, range, range over the isoforms
CYP1A2 [2] = target: T3, CYP1A2; test: in vitro

Chain of CYP2E1 (P05181 whole entry): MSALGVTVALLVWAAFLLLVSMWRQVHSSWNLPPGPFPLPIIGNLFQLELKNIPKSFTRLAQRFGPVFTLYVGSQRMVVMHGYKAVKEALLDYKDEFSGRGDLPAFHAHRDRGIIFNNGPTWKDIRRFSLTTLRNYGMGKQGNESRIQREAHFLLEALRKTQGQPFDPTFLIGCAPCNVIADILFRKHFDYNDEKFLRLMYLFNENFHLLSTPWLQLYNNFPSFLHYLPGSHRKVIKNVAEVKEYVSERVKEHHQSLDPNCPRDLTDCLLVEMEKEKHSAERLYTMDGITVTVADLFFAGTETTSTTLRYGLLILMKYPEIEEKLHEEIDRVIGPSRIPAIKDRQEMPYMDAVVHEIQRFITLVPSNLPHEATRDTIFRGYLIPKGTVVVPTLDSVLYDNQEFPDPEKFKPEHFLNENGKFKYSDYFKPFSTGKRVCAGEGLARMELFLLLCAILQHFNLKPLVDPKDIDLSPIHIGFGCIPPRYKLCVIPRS
Chain of CYP2C9 (P11712 whole entry): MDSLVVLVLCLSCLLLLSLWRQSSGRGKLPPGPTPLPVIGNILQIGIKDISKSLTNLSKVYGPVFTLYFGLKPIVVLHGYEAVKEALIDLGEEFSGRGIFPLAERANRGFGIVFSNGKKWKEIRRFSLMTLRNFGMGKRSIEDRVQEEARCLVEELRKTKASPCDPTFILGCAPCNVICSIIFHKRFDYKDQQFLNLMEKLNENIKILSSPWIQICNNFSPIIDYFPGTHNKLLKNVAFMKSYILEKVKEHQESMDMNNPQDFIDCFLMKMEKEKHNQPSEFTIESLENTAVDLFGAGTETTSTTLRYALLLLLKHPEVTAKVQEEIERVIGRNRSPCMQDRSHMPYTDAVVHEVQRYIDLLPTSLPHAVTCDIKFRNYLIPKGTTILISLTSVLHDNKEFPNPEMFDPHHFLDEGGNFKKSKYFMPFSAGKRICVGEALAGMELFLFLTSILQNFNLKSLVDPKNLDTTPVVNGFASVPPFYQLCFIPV
Chain of CYP3A4 (P08684 whole entry): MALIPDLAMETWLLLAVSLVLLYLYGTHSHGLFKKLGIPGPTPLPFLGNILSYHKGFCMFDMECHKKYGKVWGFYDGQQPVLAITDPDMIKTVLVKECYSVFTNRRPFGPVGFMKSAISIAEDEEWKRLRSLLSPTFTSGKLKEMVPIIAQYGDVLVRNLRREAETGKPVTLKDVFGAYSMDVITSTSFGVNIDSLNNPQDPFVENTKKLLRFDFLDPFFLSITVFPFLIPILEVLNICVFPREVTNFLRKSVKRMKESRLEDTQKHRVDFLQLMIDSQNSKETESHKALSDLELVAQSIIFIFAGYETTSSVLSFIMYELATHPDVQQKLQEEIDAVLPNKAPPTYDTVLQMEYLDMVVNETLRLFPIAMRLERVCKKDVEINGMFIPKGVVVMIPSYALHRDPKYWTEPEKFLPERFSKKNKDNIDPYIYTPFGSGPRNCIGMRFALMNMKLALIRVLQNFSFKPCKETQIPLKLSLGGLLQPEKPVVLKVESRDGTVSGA

Q: Which “Intermolecular KIE” value (CYP2C9; CYP2C9 (Table 15)) does the source give for `COc1ccc(C)cc1` [p-Methylanisole, p-methylanisole] here?
A: 3.52

Q: And the “Intramolecular KIE” value (CYP2C9; CYP2C9 (Table 15))?
A: 3.92

Q: What about the “δΔG^†” value (CYP2C9; CYP2C9, benzylic oxidation vs O-dealkylation) of the same compound?
A: 1.87 kcal/mol

Q: And the “INTER KIE (combined intermolecular competitive KIE)” value (CYP2B6)?
A: 6.8

Q: And the “Intramolecular KIE (kH/kD)” value (CYP2B6)?
A: 3.74

Q: And the “P, calculated primary KIE” value (CYP2B6)?
A: 4.6

Q: And the “S, calculated secondary KIE” value (CYP2B6)?
A: 1.22

Q: What about the “nmol p-CR” value (CYP2B6) of the same compound?
A: 2.10* nmol

Q: What about the “nmol p-MBA” value (CYP2B6) of the same compound?
A: 7.0* nmol

Q: And the “nmol total TP” value (CYP2B6)?
A: 9.1 nmol

Q: And the “Intermolecular KIE” value (CYP2C8; CYP2C8 (Table 15))?
A: 3.60

Q: And the “Intramolecular KIE” value (CYP2C8; CYP2C8 (Table 15))?
A: 3.60

Q: What about the “δΔG^†” value (CYP2C8; CYP2C8, benzylic oxidation vs O-dealkylation) of the same compound?
A: 1.32 kcal/mol

Q: And the “Intermolecular KIE” value (CYP3A4; CYP3A4 (Table 15))?
A: 2.76

Q: And the “Intramolecular KIE” value (CYP3A4; CYP3A4 (Table 15))?
A: 5.27

Q: What about the “δΔG^†” value (CYP3A4; CYP3A4, benzylic oxidation vs O-dealkylation) of the same compound?
A: 1.61 kcal/mol

Q: And the “Intermolecular KIE” value (CYP2E1; CYP2E1 (Table 15))?
A: 6.53

Q: What about the “Intramolecular KIE” value (CYP2E1; CYP2E1 (Table 15)) of the same compound?
A: 4.02

Q: And the “δΔG^†” value (CYP2E1; CYP2E1, benzylic oxidation vs O-dealkylation)?
A: 1.06 kcal/mol

Q: And the “Intermolecular KIE” value (CYP1A2 [1]; CYP1A2 (Table 15))?
A: 5.94

Q: And the “Intramolecular KIE” value (CYP1A2 [1]; CYP1A2 (Table 15))?
A: 3.79

Q: What about the “δΔG^†” value (CYP1A2 [1]; CYP1A2, benzylic oxidation vs O-dealkylation) of the same compound?
A: 1.82 kcal/mol

Q: What about the “Intermolecular KIE” value (CYP1A1; CYP1A1 (Table 15)) of the same compound?
A: 2.17

Q: What about the “Intramolecular KIE” value (CYP1A1; CYP1A1 (Table 15)) of the same compound?
A: 4.23

Q: What about the “δΔG^†” value (CYP1A1; CYP1A1, benzylic oxidation vs O-dealkylation) of the same compound?
A: 1.12 kcal/mol

Q: Which results are given for `COc1ccccc1C` [o-Methylanisole, o-methylanisole]?
A: selectivity ratio at 20 min, […] (CYP1A2, CYP2B1, CYP2E1): 0.3 to 0.6; selectivity ratio at 20 min, […] (multiple CYP isoforms): 1.2 to 3; INTER KIE (combined intermolecular competitive KIE) (CYP2B6): 10.43; Intramolecular KIE (kH/kD) (CYP2B6): 6.78; Metabolite profile, o-CR (CYP2B6): 56 Mol-%; Metabolite profile, o-MBA (CYP2B6): 29 Mol-%; P, calculated primary KIE (CYP2B6): 7.8; Ratio ODAlk:Arom (CYP2B6): 0.3; S, calculated secondary KIE (CYP2B6): 1.15; nmol 4M3MPh (CYP2B6): 2.8 nmol; nmol TP (CYP2B6): 19 nmol; nmol o-CR (CYP2B6): 10.7* nmol; nmol o-MBA (CYP2B6): 5.5* nmol; selectivity ratio (CYP1A2 [2]; pH 7.4, Regioselectivity BzH:Arom): 0.63; selectivity ratio (CYP1A2 [2]; pH 7.4, Regioselectivity BzH:ODAlk): 2.9
